Assay results taken from patent publication US5134137A, “Cephalosporin antibiotics” (The Upjohn Company, priority 1990, dated 1992).
Converted amounts (≈) assume the structure as drawn. Like-named read-outs stand apart in the source and are kept apart here.

Tests used:
Staphylococcus aureus = assay: MIC, agar dilution, Staphylococcus aureus; type: cell-based; details: Staphylococcus aureus, read-out: MIC
Outline: (§1)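 Each organism receives an inoculum of approx. 10^3–10^4 CFU, taken from a 5% CO2 BHI subculture standardised to 0.5 McFarland and diluted 1:20. It is spotted on Mueller-Hinton agar containing the compound, then incubated for 16–18 h at 37 °C with CO2.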

Salmonella typhimurium = assay: Systemic infection model in mice, ED50, Salmonella typhimurium; type: in vivo; details: Salmonella enterica, 144 h, 50% survival six days post infection, per day, read-out: ED50 (95% confidence limits)
Protocol: (§2) Experimental Infections and Antitiotic Treatment (for ED50 in mice tests).
(§3) Mice are infected and treated with the test antibiotic compound according to procedures described previously [Yancey, Jr., R. J. et at. supra].
(§4) The test antibiotic compound is administered subcutaneously immediately following infection, then at 24 hours and 48 hours post infection. The medium effective dose (ED50) number is determined for all infections. The ED50 value is defined as the calculated concentration of the test antibiotic compound in mg. of compound per kilogram of mouse body weight per day at which 50% of the animals survived six days post infection.

Streptococcus suis = assay: MIC, agar dilution, Streptococcus suis; type: cell-based
Outline: as §1

Streptococcus uberis = assay: MIC, agar dilution, Streptococcus uberis; type: cell-based; details: Streptococcus uberis, read-out: MIC
Outline: as §1

[1] = system: Streptococcus dysgalactiae; assay: MIC, agar dilution, Streptococcus dysgalactiae; type: cell-based; details: Streptococcus dysgalactiae; strain UC251; read-out: MIC
Outline: as §1

[2] = system: Bordetella bronchiseptica; assay: MIC, agar dilution, Bordetella bronchiseptica; type: cell-based; details: Bordetella bronchiseptica, read-out: MIC
Outline: as §1

Pasteurella multocida = assay: MIC, agar dilution, Pasteurella multocida; type: cell-based; details: Pasteurella multocida; strain B77-18; read-out: MIC
Outline: as §1

Pseudomonas aeruginosa = assay: MIC, agar dilution, Pseudomonas aeruginosa; type: cell-based; details: Pseudomonas aeruginosa; strain ATCC27853; read-out: MIC
Outline: as §1

Strep. faecalis = assay: MIC, agar dilution, Strep. faecalis; type: cell-based; details: Enterococcus faecalis
Protocol: Stock solution of each test antibiotic compound were prepared to have a concentration of 2 mg. of the test compound per milliliter in sterile water of 0.1M ammonium acetate solution. The amount of each compound used was adjusted for base compound activity as calculated from the purity data for the selected batch of compound.
The dilution procedure described by Washington and Sutter [Manual of Clinical Microbiology, 3rd, Edit. (Lennett, E. H. et al, Eds.), pp. 453-458 (1980), American Society for Microbiology, Washington, D.C.] was modified so that serial concentrations of 128 to 0.0625 microgram/ml. in sterile water was obtained. Then 1.5 ml. aliquots of these test antibiotic dilution mixtures are added to 13.5 molten (50° C.) Mueller-Hinton agar. Each resulting mixture is poured into 15×100 mm, sterile Petri plates and allowed to dry at room temperature overnight.
Test bacterial cultures are maintained at -70° C. on glass beads. [See R. J. Yancey, Jr. et al, Amer. Jr. of Vet. Research, 48, No. 7, pp. 1050-1053, (1987)]. At least one bacteria-laden bead per culture is dropped into one ml. of brain heart infusion (BHI) broth for overnight culture at 37° C. in 5% V/V carbon dioxide in air atmosphere.
On the data of assay, 2 to 8 drops of the bacterial broth cultures are transferred to fresh BHI broth (1 ml.) and the mixture is incubated for 4 to 6 hours at 37° C. in a 5% V/V carbon dioxide in air atmosphere. The resulting cultures are then diluted to match a 0.5 MacFarland standard and further diluted 1:20 V/V with sterile saline solution.
A 0.001 ml. drop of the resulting mixture, containing approximately 10^3 to 10^4 colony forming units (CFU) of each test bacteria organism, is dispensed onto the surface of the test antibiotic compound test plates with a Steer's type replicator. The resulting innoculated plates are incubated 16 to 18 hours at 37° C. with a carbon dioxide atmosphere.

P. hemolytica = assay: Systemic infection model in mice, ED50, P. hemolytica; type: in vivo; details: Mus musculus, sc, 144 h, 50% survival six days post infection, per day, read-out: ED50 (95% confidence limits)
Protocol: as §2, §3, §4

Pasteurella hemolytica = assay: MIC (minimum inhibitory concentration), agar dilution, Pasteurella hemolytica; type: cell-based; details: Pasteurella, read-out: MIC
Outline: as §1

[3] = TYPHIMURIUM / UC6162, sc, strain UC6162, subcutaneous, 0, 24, 48 hours post infection
[4] = TYPHIMURIUM / UC6164, sc, strain UC6164, lactamase producing, subcutaneous, 0, 24, 48 hours post infection
[5] = Streptococcus suis, strain 538-2, read-out: MIC
[6] = strain UC6531, subcutaneous, 0, 24, 48 hours post infection
[7] = strain UC6532, lactamase producing, subcutaneous, 0, 24, 48 hours post infection

Row | MIC (Staphylococcus aureus; strain ATCC25923) | MIC (Staphylococcus aureus; strain UC6093) | MIC (Staphylococcus aureus; strain UC6097) | MIC (Staphylococcus aureus; strain UC6688) | MIC (Staphylococcus aureus; strain UC9201) | MIC (Streptococcus suis; [5]) | MIC (Streptococcus suis; strain 650-2) | MIC (Streptococcus uberis; strain UC3946) | MIC (Streptococcus uberis; strain UC6159) | MIC [1] | MIC ([2]; strain UC3287) | MIC ([2]; strain UC6313) | MIC (Pasteurella multocida) | MIC (Pseudomonas aeruginosa) | MIC (Strep. faecalis; strain ATCC29212) | MIC (Strep. faecalis; strain UC241) | MIC (Strep. faecalis; strain UC694) | Compound | ED50 (Salmonella typhimurium; [3]) | ED50 (Salmonella typhimurium; [4]) | ED50 (P. hemolytica; [6]) | further results
1 | 16 µg/mL | 16 µg/mL | 16 µg/mL | > 32 µg/mL | 16 µg/mL | ≤ 0.06 µg/mL | ≤ 0.06 µg/mL | 0.25 µg/mL | 32 µg/mL | ≤ 0.06 µg/mL | > 32 µg/mL | > 32 µg/mL | ≤ 0.06 µg/mL | > 32 µg/mL | > 32 µg/mL | > 32 µg/mL | > 32 µg/mL | CO/N=C(\C(=O)N[C@@H]1C(=O)N2C(C(=O)O)=C(CS)CS[C@H]12)c1csc(N)n1 [Formula III compound, 3-mercaptomethyl-7β-[2-(2-amino-1,3-thiazol-4-yl)-(Z)-2-(methoxyimino)acetamido]ceph-3-em-4-carboxylic acid] | 0.3 mg/kg | 0.5 mg/kg | 0.8 mg/kg | ED50 (P. hemolytica; [7]): 0.8 mg/kg; MIC (Pasteurella hemolytica; strain B77-19): ≤ 0.06 µg/mL; MIC (Pasteurella hemolytica; strain UC6531): ≤ 0.06 µg/mL; MIC (Pasteurella hemolytica; strain UC6532): ≤ 0.06 µg/mL
2 | 0.25 µg/mL (≈ 0.477 µM) | 1 µg/mL (≈ 1.91 µM) | 0.5 µg/mL (≈ 0.955 µM) | 32 µg/mL (≈ 61.1 µM) | 1 µg/mL (≈ 1.91 µM) | ≤ 0.06 µg/mL | ≤ 0.06 µg/mL | ≤ 0.06 µg/mL | 0.25 µg/mL (≈ 0.477 µM) | ≤ 0.06 µg/mL | > 32 µg/mL | > 32 µg/mL | ≤ 0.06 µg/mL | 32 µg/mL (≈ 61.1 µM) | 32 µg/mL (≈ 61.1 µM) | > 32 µg/mL | > 32 µg/mL | CO/N=C(\C(=O)N[C@@H]1C(=O)N2C(C(=O)O)=C(CSC(=O)c3ccco3)CS[C@H]12)c1csc(N)n1 [ceftiofur, 7-[2-(amino-1,3-thiazol-4-yl)-2-(methoxyimino)acetamido]-3-[(fur-2-ylcarbonyl)thiomethyl]-3-cephem-4-carboxylic acid, reference compound] | 0.4 mg/kg | 0.5 mg/kg | 0.8 mg/kg | ED50 (P. hemolytica; [7]): 0.9 mg/kg; MIC (Pasteurella hemolytica; strain B77-19): ≤ 0.06 µg/mL; MIC (Pasteurella hemolytica; strain UC6531): ≤ 0.06 µg/mL; MIC (Pasteurella hemolytica; strain UC6532): ≤ 0.06 µg/mL

Row | Compound | MIC (Staphylococcus aureus; strain ATCC25923) | MIC (Staphylococcus aureus; strain UC6093) | MIC (Staphylococcus aureus; strain UC6097) | MIC (Staphylococcus aureus; strain UC6688) | MIC (Staphylococcus aureus; strain UC9201) | MIC (Streptococcus suis; [5]) | MIC (Streptococcus suis; strain 650-2) | MIC (Streptococcus uberis; strain UC3946) | MIC (Streptococcus uberis; strain UC6159) | MIC [1] | MIC ([2]; strain UC3287) | MIC ([2]; strain UC6313) | MIC (Pasteurella multocida) | MIC (Pseudomonas aeruginosa) | MIC (Strep. faecalis; strain ATCC29212) | MIC (Strep. faecalis; strain UC241) | MIC (Strep. faecalis; strain UC694) | ED50 (Salmonella typhimurium; [3]) | ED50 (Salmonella typhimurium; [4]) | ED50 (P. hemolytica; [6]) | further results
3 | CO/N=C(\C(=O)N[C@@H]1C(=O)N2C(C(=O)O)=C(CO)CS[C@H]12)c1csc(N)n1 [desacetyl cefotoxime, 7-[2-(2-amino-1,3-thiazol-4-yl)-(syn)-2-methoxyiminoacetamido]-3-hydroxymethylceph-3-em-4-carboxylic acid, reference compound] | 4 µg/mL (≈ 9.67 µM) | 16 µg/mL (≈ 38.7 µM) | 16 µg/mL (≈ 38.7 µM) | > 32 µg/mL | 16 µg/mL (≈ 38.7 µM) | ≤ 0.06 µg/mL | ≤ 0.06 µg/mL | ≤ 0.06 µg/mL | 16 µg/mL (≈ 38.7 µM) | ≤ 0.06 µg/mL | > 32 µg/mL | > 32 µg/mL | ≤ 0.06 µg/mL | > 32 µg/mL | > 32 µg/mL | > 32 µg/mL | > 32 µg/mL | 0.8 mg/kg | 1 mg/kg | 0.3 mg/kg | ED50 (P. hemolytica; [7]): 0.6 mg/kg; MIC (Pasteurella hemolytica; strain B77-19): ≤ 0.06 µg/mL; MIC (Pasteurella hemolytica; strain UC6531): ≤ 0.06 µg/mL; MIC (Pasteurella hemolytica; strain UC6532): ≤ 0.06 µg/mL
